Entries after “also recorded” stand apart in the source; their conditions may differ.
Tests used:
[1] = galactosamine-sensitized mice; cited from earlier work
Escherichia coli = conditions: one dose one day prior to microbial inoculation; cited from earlier work
CD14 = conditions: human peripheral blood cells; cited from earlier work
infective agent = conditions: once or thrice, myelo-suppressed or immunocompetent mice; cited from earlier work
[2] = tested on: murine macrophages and neutrophil granulocytes; conditions: cited from earlier work
[3] = repeated dosages; cited from earlier work
[4] = tumour-affected patients; cited from earlier work
[5] = biological target: T1, purified human MD-2 receptor (Homo sapiens, UniProt Q9Y6Y9); assay: Biotinylated LPS displacement from MD-2 hydrophobic pocket (ELISA); type: binding; conditions: increasing concentrations, highest 160 μM
T1 sequence (Q9Y6Y9 19-160): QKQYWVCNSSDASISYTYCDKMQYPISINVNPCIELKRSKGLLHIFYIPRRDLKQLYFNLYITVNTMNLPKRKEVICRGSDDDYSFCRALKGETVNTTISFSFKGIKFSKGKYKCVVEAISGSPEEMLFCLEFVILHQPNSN
Experimental: The ability to displace LPS from MD-2 hydrophobic pocket was assessed by using an ELISA assay. Molecules FP11 and FP111 were added at increasing concentrations to MD-2 which had previously been incubated with biotinylated LPS.
The ability of the compounds to displace LPS from MD-2 hydrophobic pocket was determined by ELISA.
A microtiter plate was coated overnight at 4° C. with 100 μL/well of 5 μg/mL chicken polyclonal anti-MD-2 antibodies, diluted in 50 mM Na2CO3 buffer, pH 9.6, and blocked with 1% BSA in PBS. After washing, 1 μM MD-2 with biotin-labeled LPS was added and incubated for 2 h. After washing, the compounds were added at different concentrations and incubated for 1.5 h.
After washing, 0.5 μg/mL HRP-conjugated streptavidin (Sigma) in PBS was added, followed by detection at 420 nm after the addition of 100 μL of ABTS (Sigma). Chicken anti-MD-2 polyclonal antibodies were prepared against recombinant MD-2 by GenTel (Madison, Wis., USA),

HEK-Blue™ Null2 cells = assay: HEK-Blue Null2 counter-assay (SEAP reporter, no TLR4/MD-2/CD14); type: cell-based; conditions: 16-18 hours
Experimental: (§1) HEK-Blue™ hTLR4 (FIG. 1A) and HEK-Blue™ Null2 (FIG. 1B) cells were treated with the indicated concentrations of compounds FP11, FP111, and with LPS (100 ng/mL) and incubated for 16-18 hours. Results were normalized to stimulation with LPS alone, and are expressed as mean of percentage ±ES. of at least three independent experiments.
In order to be certain that the agonist effect of compound FP11 be due to the interaction with the TLR4 receptor, the compounds were tested on the HEK-Blue™ Null2 cell line. Said line expresses the same reporter gene of HEK-Blue™ hTLR4 cells (SEAP), but has none of the receptors involved in endotoxin recognition (TLR4, MD-2, CD14).

[6] = biological target: T1, purified human MD-2 receptor; assay: Surface plasmon resonance binding to MD-2
Experimental: Surface plasmon resonance (SPR) experiments enable the study of direct interactions between the molecules to be characterized and MD-2.
The binding affinity of the compounds to recombinant MD-2 was determined using a Biacore X100 with an NTA sensor chip (Biacore, GE Healthcare, Uppsala, Sweden). Briefly, 0.5 μM MD-2 (in 50 mM TRIS, 150 mM NaCl, 0.5% Tween 20, pH 7.5) was immobilized onto the sensor chip previously activated with 1 min pulse of 10 mM NiSO4. The first flow cell was used as a reference surface to control nonspecific binding.
Both flow cells were incubated with the analyte (in PBS, 5% DMSO, 5% EtOH, pH 7.5) at a flow rate of 10 μL/min at 25° C. at increasing concentrations. The data were analyzed with Biacore Evaluation software. KD values were calculated by global fitting of the equilibrium binding responses from various concentrations of analytes using a 1:1 Langmuir binding model.

[7] = biological target: T1, purified human MD-2 receptor; assay: MD-2-bound fluorescent molecule (bis-ANS) displacement assay; type: binding; conditions: MD-2 200 nM, bis-ANS 200 nM
Experimental: therefore, TLR4 modulators that interact with MD-2 compete with compound bis-ANS, and are able to displace it from MD-2.
Fluorescence was measured on PerkinElmer fluorimeter LS 55 (PerkinElmer, UK) as previously described^[5].
All measurements were done at 20° C. in a 5×5 mm quartz glass cuvette (Hellma Suprasil, Müllheim, Germany). MD-2 protein (200 nM) and 1,1′-Bis(anilino)-4,4′-bis (naphtalene)-8,8′ disulfonate (bis-ANS, 200 nM) were mixed and incubated until reaching stable relative fluorescence units (RFUs) emitted at 420-550 nm under excitation at 385 nm.
Compounds, at different concentrations, were then added, followed by relative fluorescence unit (RFU) measurement at 420-550 nm.

[8] = biological target: T1, purified human MD-2 receptor; assay: Anti-MD-2 antibody (9B4) competition, antibody-sandwich ELISA; type: binding; conditions: up to 20 μM
Experimental: The direct binding of molecules FP11 and FP111 to MD-2 was analyzed by using a monoclonal antibody binding MD-2, but not LPS-bound MD-2 (Viriyakosol, S., et al., Characterization of monoclonal antibodies to human soluble MD-2 protein. Hybridoma (Larchmt), 2006. 25(6): p. 349-57).
Anti-MD-2 monoclonal antibody (9B4) specifically binds an epitope near the MD-2 hydrophobic pocket, which is available for 9B4 antibody binding only when the MD-2 hydrophobic pocket is empty. Compound FP11 is accountable for a decrease of 9B4 antibody binding to MD-2 equal to 95% at a concentration of 20 μM (FIG. 3E).
The method of antibody-sandwich ELISA for the detection of the binding of compounds to MD-2 was modified from a previous study.
A microtiter plate was coated overnight at 4° C. with 100 μL/well of 5 μg/mL of chicken polyclonal anti-MD-2 antibodies, diluted in 50 mM Na2CO3 buffer, pH 9.6, and blocked with 1% BSA in PBS. After washing, 1 μM MD-2 with tested compounds was added and incubated for 2 h.
Mouse anti-MD-2 mAb (0.1 μg/mL 9B4) and goat antimouse IgG conjugated with HRP (0.1 μg/mL) in PBS were added, followed by detection at 420 nm after the addition of 100 μL of ABTS (Sigma).
Chicken anti-MD-2 polyclonal antibodies were prepared against recombinant MD-2 by GenTel (Madison, Wis., USA), monoclonal mouse anti-MD-9B4 antibodies were from eBioscience (San Diego, Calif., USA), and secondary goat antimouse IgG conjugated with horseradish peroxidase was from Santa Cruz Biotechnology (Santa Cruz, Calif., USA).

hTLR4 = biological target: T2, hTLR4 (Homo sapiens, UniProt O00206+Q9Y6Y9); assay: HEK-Blue hTLR4 SEAP reporter assay (NF-κB/AP-1 activation); type: cell-based; conditions: HEK-Blue hTLR4 cells, 16-18 hours, SEAP reporter
T2 construct: host or cells: HEK-Blue hTLR4 (HEK cells)
T2 sequence (O00206 24-839): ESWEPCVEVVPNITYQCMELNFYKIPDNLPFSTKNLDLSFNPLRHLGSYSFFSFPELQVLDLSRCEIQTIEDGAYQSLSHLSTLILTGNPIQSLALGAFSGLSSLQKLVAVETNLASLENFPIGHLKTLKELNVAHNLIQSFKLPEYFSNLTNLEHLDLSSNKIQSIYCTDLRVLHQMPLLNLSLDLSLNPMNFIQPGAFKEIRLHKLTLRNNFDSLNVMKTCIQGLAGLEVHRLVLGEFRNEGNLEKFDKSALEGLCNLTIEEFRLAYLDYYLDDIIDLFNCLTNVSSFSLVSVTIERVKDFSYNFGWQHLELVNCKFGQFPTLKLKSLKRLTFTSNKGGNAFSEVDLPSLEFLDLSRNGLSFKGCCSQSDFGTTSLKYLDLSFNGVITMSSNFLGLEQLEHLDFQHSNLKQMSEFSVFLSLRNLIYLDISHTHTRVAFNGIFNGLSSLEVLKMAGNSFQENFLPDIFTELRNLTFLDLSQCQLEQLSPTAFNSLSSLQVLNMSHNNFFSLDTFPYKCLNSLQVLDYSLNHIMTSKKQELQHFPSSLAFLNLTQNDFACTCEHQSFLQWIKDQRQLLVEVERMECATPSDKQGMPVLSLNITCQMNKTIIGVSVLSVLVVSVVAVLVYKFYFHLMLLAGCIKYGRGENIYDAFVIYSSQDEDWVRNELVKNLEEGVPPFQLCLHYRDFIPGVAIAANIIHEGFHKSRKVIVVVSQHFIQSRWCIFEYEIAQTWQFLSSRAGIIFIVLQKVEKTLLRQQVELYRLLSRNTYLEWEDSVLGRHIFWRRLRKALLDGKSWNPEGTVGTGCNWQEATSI
T2 sequence (Q9Y6Y9 17-160 limits assumed): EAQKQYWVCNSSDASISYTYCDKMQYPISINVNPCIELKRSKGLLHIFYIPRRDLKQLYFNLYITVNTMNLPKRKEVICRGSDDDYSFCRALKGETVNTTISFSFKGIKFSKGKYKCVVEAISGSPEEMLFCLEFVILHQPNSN
Experimental: as §1
HEK-Blue™ hTLR4 cells were treated with increasing concentrations of compound FP11 and of LPS and incubated for 16-18 hours. Results were normalized to maximum activation of the reporter produced by LPS (FIG. 2A) and to maximum activation of the reporter produced by the compound itself (FIG. 2B). Data were fitted to a sigmoidal four-parameter logistic equation in order to determine IC50 values, and expressed as mean of percentage ±ES of at least three independent experiments.
HEK-Blue™ hTLR4 cells are HEK cells transfected so as to stably express human receptors hTLR4, hMD-2, and hCD14 for endotoxin recognition. In addition, said cells have a reporter gene encoding for a secreted alkaline phosphatase (SEAP) μlaced under the control of specific transcription factors (NF-κB and AP-1) activated by the TLR4 signaling pathway. Therefore, the presence of LPS or of an agonist of TLR4 causes receptor dimerization, activation of the signaling pathway and of transcription factors NF-κB and AP-1, and finally SEAP production and secretion into the culture medium. SEAP levels can be subsequently quantitated by incubating the medium with compound p-nitrophenylphosphate (pNPP) and monitoring with a spectrophotometer the formation of p-nitrophenol chromogenic product at 405 nm.
HEK-Blue™ hTLR4 cells (InvivoGen) were cultured according to manufacturer's instruction. […]
Cells were detached using a cell scraper, counted and seeded in a 96-well multiwell plate at a density of 4×10^4 cells per well. […]
The wells' optical density was determined using a microplate reader set at 405 nm.
The results were normalized with positive control (LPS alone) and expressed as a mean of percentage ±SEM of at least three independent experiments.

SMILES | factor of toxicity reduction compared to parent endotoxin (Salmonella abortus equi) [1] | effect on curative effects of antibiotics (Escherichia coli) | blocking of compound-induced TNF-α release by monoclonal antibodies for CD-14 (CD14) | protective effect on prophylactic administration (infective agent) | stimulation of release of IL-6, IL-8 and TNF-α [2] | duration of transient resistance to endotoxin-related lethal risks [3] [week] | effect on granulocyte counts and serum cytokine levels [4] | safety and tolerability of administration [4] | ability to displace biotinylated LPS from MD-2 hydrophobic pocket [5] | activation of transcription factors NF-κB and AP-1 in cells without TLR4, MD-2, CD14 (HEK-Blue™ Null2 cells) | direct binding to MD-2 (SPR) [6] | decrease of bis-ANS fluorescence / inhibition of bis-ANS binding to MD-2 [7] | prevention of monoclonal antibody 9B4 binding to MD-2 [8] | TLR4 agonist activity (activation of NF-κB and AP-1) (hTLR4)
CCCCCCCCCCC[C@@H](O)CC(=O)N[C@H]1[C@@H](OP(=O)(O)O)O[C@H](CO)[C@@H](OC(=O)C[C@H](O)CCCCCCCCCCC)[C@@H]1OC(=O)C[C@H](O)CCCCCCCCCCC [SDZ MRL 953] | at least 10^4 | dramatically increased the curative effects of antibiotics administered | is not blocked | highly protective effect | potent activity in stimulating the release of inflammatory cytokines | ≥ 1 | increases granulocyte counts and serum levels of G-CSF and interleukin-6 (IL-6), but not of pro-inflammatory cytokines TNF-α, IL-1b, and IL-8 | safe and of excellent tolerability | – | – | – | – | – | –
CCCCCCCCCCCCCC(=O)NC1[C@H](OP(=O)(O)O)OC(COP(=O)(O)O)[C@@H](OC(=O)CCCCCCCCCCCCC)[C@@H]1OC(=O)CCCCCCCCCCCCC (stereo partly drawn) [FP111, 1,6-O-Phosphoryl-2-deoxy-4-O-tetradecanoyl 3-O-tetradecanoyl-2-tetradecanoylamino-α-D-glucopiranoside] | – | – | – | – | – | – | – | – | unable to displace biotinylated LPS; also recorded: but not FP111, displaces biotinylated LPS | unable to activate transcription factors NF-κB and AP-1 | but not FP111, directly binds MD-2; also recorded: does not bind MD-2 | not able to induce a decrease of compound bis-ANS fluorescence; also recorded: but not FP111, inhibits the binding of bis-ANS to MD-2 | unable to cause a decrease of 9B4 antibody binding; also recorded: but not FP111, prevents the binding of monoclonal antibody to MD-2 | completely inactive

Source: patent US20230037862A1, “SYNTHETIC AGONISTS OF TLR4 RECEPTOR” (UNIVERSITÀ DEGLO STUDI DI MILANO - BICOCCA, priority 2017, published 2023)
